Data reported in patent publication US10681909B2, “Herbicidal triazoles” (FMC Corporation, priority 2014, dated 2020).

Tests used:
ryegrass, Ital. = test: Test D preemergence; assay type: in vivo, Lolium multiflorum; conditions: scale 0 to 100
Description: (§1) Seeds of plant species selected from bluegrass (annual bluegrass, Poa annua), blackgrass (Alopecurus myosuroides), canarygrass (Phalaris minor), chickweed (common chickweed, Stellaria media), galium (catchweed bedstraw, Galium aparine), bromegrass, down (downy bromegrass, Bromus tectorum), Russian thistle (Salsola kali), field poppy (Papaver rhoeas), field violet (Viola arvensis), foxtail, green (green foxtail, Setaria viridis), deadnettle (henbit deadnettle, Lamium amplexicaule), ryegrass, Ital. (Italian ryegrass, Lolium multiflorum), kochia (Kochia scoparia), lambsquarters (Chenopodium album), oilseed rape (Brassica napus), pigweed (Amaranthus retroflexus), chamomile (scentless chamomile, Matricaria inodora), speedwell (bird's-eye speedwell, Veronica persica), barley, spring (spring barley, Hordeum vulgare), wheat, spring (spring wheat, Triticum aestivum), buckwheat, wild (wild buckwheat, Polygonum convolvulus), wild mustard (Sinapis arvensis), oat, wild (wild oat, Avena fatua), radish, wild (wild radish, Raphanus raphanistrum), […]), barley, winter (winter barley, Hordeum vulgare), and wheat, winter (winter wheat, Triticum aestivum) were planted into a silt loam soil and treated preemergence with test chemicals formulated in a non-phytotoxic solvent mixture which included a surfactant. At the same time, these species were planted in pots containing Sunshine Redi-Earth® planting medium comprising spaghnum peat moss, vermiculite, starter nutrients and dolomitic limestone and treated with postemergence applications of the test chemicals formulated in the same manner. Plants ranged in height from 2 to 18 cm (1- to 4-leaf stage). Treated plants and controls were maintained in a controlled growth environment for 14 to 21 d after which time all species were compared to controls and visually evaluated. […] A dash (-) response means no test result.

foxtail, green = test: Test D preemergence; assay type: in vivo, Setaria viridis; conditions: scale 0 to 100
Description: as §1

wheat (winter wheat) = test: Test C preemergence; assay type: in vivo, Triticum aestivum; conditions: for Wheat plant response rating (0 to 100): Preemergence, visual rating after 13 to 15 d; for Plant response rating (scale of 0 to 100 where 0 is no effect and 100 is complete control): Wheat, preemergence, 250 g ai/ha
Description: (§2) Seeds of plant species selected from blackgrass (Alopecurus myosuroides), ryegrass, Italian (Italian ryegrass, Lolium multiflorum), wheat (winter wheat, Triticum aestivum), galium (catchweed bedstraw, Galium aparine), corn (Zea mays), crabgrass, large (large crabgrass, Digitaria sanguinalis), foxtail, giant, (giant foxtail, Setaria faberii), johnsongrass (Sorghum halepense), lambsquarters (Chenopodium album), morningglory (Ipomoea coccinea), nutsedge, yellow (yellow nutsedge, Cyperus esculentus), pigweed (Amaranthus retroflexus), ragweed (common ragweed, Ambrosia elatior), soybean (Glycine max), barnyardgrass (Echinochloa crus-galli), oilseed rape (Brassica napus), waterhemp (common waterhemp, Amaranthus rudis), and velvetleaf (Abutilon theophrasti) were planted into a blend of loam soil and sand and treated preemergence with test chemicals formulated in a non-phytotoxic solvent mixture which included a surfactant. At the same time, plants selected from these crop and weed species and also chickweed (common chickweed, Stellaria media), oat, wild (wild oat, Avena fatua), and kochia (Kochia scoparia), were planted in pots containing Sunshine Redi-Earth® planting medium comprising spaghnum peat moss, vermiculite, starter nutrients and dolomitic limestone and treated with postemergence applications of test chemicals formulated in the same manner. Plants ranged in height from 2 to 18 cm (1- to 4-leaf stage) for postemergence treatments. […] A dash (-) response means no test result.

lambsquarters = test: Test D preemergence; assay type: in vivo, Chenopodium album; conditions: scale 0 to 100
Description: as §1

field poppy = test: Test D preemergence; assay type: in vivo, Papaver rhoeas; conditions: scale 0 to 100
Description: as §1

crabgrass, large [1] = test: Test C preemergence; assay type: in vivo, Digitaria sanguinalis; conditions: for Plant response rating (scale of 0 to 100 where 0 is no effect and 100 is complete control): Crabgrass, Large, preemergence; for Crabgrass, Large plant response rating (0 to 100): Preemergence, visual rating after 13 to 15 d
Description: as §2

oilseed rape = test: Test D preemergence; assay type: in vivo, Brassica napus; conditions: scale 0 to 100
Description: as §1

crabgrass, large [2] = test: Test A preemergence; assay type: in vivo, Digitaria sanguinalis; conditions: Digitaria sanguinalis, pre-emergence, 240 h, 0 to 100 scale (0 no effect, 100 complete control), read-out: Plant response rating, Crabgrass, Large; for pest or weed control at 125 g/ha: 125 g ai/ha; for pest or weed control at 500 g/ha: 500 g ai/ha, approx. 10 d
Outline: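 Loam/sand soil mix; compound in non-phytotoxic solvent + surfactant. Pre: directed soil spray right after planting seed. Post: potted plants 2–10 cm, 1–2 leaf stage, sprayed with same formulation.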

Structure (SMILES)	Plant response rating: Ryegrass, Ital. (ryegrass, Ital.; 62 g ai/ha)	Plant response rating: Ryegrass, Ital. (ryegrass, Ital.; 125 g ai/ha)	Plant response rating: Ryegrass, Ital. (ryegrass, Ital.; 250 g ai/ha)	Plant response rating: Foxtail, Green (foxtail, green; 62 g ai/ha)	Plant response rating: Foxtail, Green (foxtail, green; 125 g ai/ha)	Plant response rating: Foxtail, Green (foxtail, green; 250 g ai/ha)	Wheat plant response rating (0 to 100) (wheat (winter wheat); 31 g ai/ha)	Wheat plant response rating (0 to 100) (wheat (winter wheat); 62 g ai/ha)	Plant response rating (scale of 0 to 100 where 0 is no effect and 100 is complete control) (wheat (winter wheat))	Plant response rating: Lambsquarters (lambsquarters; 62 g ai/ha)	Plant response rating: Lambsquarters (lambsquarters; 125 g ai/ha)	Plant response rating: Lambsquarters (lambsquarters; 250 g ai/ha)	Plant response rating: Field Poppy (field poppy; 62 g ai/ha)	Plant response rating: Field Poppy (field poppy; 125 g ai/ha)	Plant response rating: Field Poppy (field poppy; 250 g ai/ha)	Plant response rating (scale of 0 to 100 where 0 is no effect and 100 is complete control) (crabgrass, large [1]; 125 g ai/ha)	Plant response rating (scale of 0 to 100 where 0 is no effect and 100 is complete control) (crabgrass, large [1]; 250 g ai/ha)	Crabgrass, Large plant response rating (0 to 100) (crabgrass, large [1]; 31 g ai/ha)	Crabgrass, Large plant response rating (0 to 100) (crabgrass, large [1]; 62 g ai/ha)	Plant response rating: Oilseed Rape (oilseed rape; 62 g ai/ha)	other results
CCOc1nc(-c2ccc(F)cc2)nn1Cc1ccnc(C(F)(F)F)c1 [Compound 8, 4-[[5-ethoxy-3-(4-fluorophenyl)-1H-1,2,4-triazol-1-yl]methyl]-2-(trifluoromethyl)pyridine]	40	95	100	100	100	100	35	45	80	100	100	100	100	100	100	100	100	100	100	60	Plant response rating: Oilseed Rape (oilseed rape; 125 g ai/ha): 100; Plant response rating: Oilseed Rape (oilseed rape; 250 g ai/ha): 100; pest or weed control at 125 g/ha (crabgrass, large [2]): 100%; pest or weed control at 500 g/ha (crabgrass, large [2]): 100%
CCc1nc(-c2ccc(C(F)(F)F)cc2)nn1Cc1ccnc(C(F)(F)F)c1 [Compound 1, 4-[[5-ethyl-3-[4-(trifluoromethyl)phenyl]-1H-1,2,4-triazol-1-yl]methyl]-2-(trifluoromethyl)pyridine]	25	30	35	100	100	100	0	0	5	100	100	100	100	100	100	100	100	98	100	100	Plant response rating: Oilseed Rape (oilseed rape; 125 g ai/ha): 100; Plant response rating: Oilseed Rape (oilseed rape; 250 g ai/ha): 100; pest or weed control at 125 g/ha (crabgrass, large [2]): 100%; pest or weed control at 500 g/ha (crabgrass, large [2]): 100%
